Test results taken from BindingDB's records for doi:10.7270/Q2QC01XF (Nmmlsc, 2009).

Biological target: Ras-related protein Rab-2A (Canis lupus familiaris, UniProt P61105)
Experiment: Rab2 wildtype GTP-binding inhibitors, SAR follow-up, biochemical, additional analogs, bead-based flow cytometry, multiplex (AID 2046)

Chain of Ras-related protein Rab-2A (P61105 whole entry): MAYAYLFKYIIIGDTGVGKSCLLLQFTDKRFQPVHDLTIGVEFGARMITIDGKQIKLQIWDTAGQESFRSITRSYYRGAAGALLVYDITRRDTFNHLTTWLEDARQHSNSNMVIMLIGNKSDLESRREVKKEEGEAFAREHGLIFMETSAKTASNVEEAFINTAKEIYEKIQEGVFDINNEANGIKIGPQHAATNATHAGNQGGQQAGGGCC

Ki | Structure (SMILES)
4.15 µM | O=C1N=c2ccc(Br)cc2=C1c1[nH]c2ccccc2c1NO [5-bromanyl-3-[3-(oxidanylamino)-1H-indol-2-yl]indol-2-one]
4.19 µM | O=C1N=c2c(Br)cccc2=C1c1[nH]c2ccccc2c1NO [7-bromanyl-3-[3-(oxidanylamino)-1H-indol-2-yl]indol-2-one]
